Laboratory results as given in US10556888B2, “Pyrazole compounds or salts thereof, preparation methods therefor, herbicidal compositions and use thereof” (QINGDAO KINGAGROOT CHEMICAL COMPOUNDS CO., LTD, priority 2015, dated 2020).

Key:
[1] = system: main crop (wheat, corn, rice, soybean, cotton, oilseed, millet and sorghum); assay: Post-emergence test experiment, main crops (Table 2); format: in vivo; parameters: key: Level 10: completely dead; Level 9: above 90% growth inhibition rate; Level 8: above 80% growth inhibition rate; Level 7: above 70% growth inhibition rate; Level 6: above 60% growth inhibition rate; Level 5: above 50% growth inhibition rate; Level 4: above 30% growth inhibition rate; Level 3: above 20% growth inhibition rate; Level 2: above 10% growth inhibition rate; Level 1: above 1-10% growth inhibition rate; Level 0: no effect; conditions: 3 weeks after spraying, greenhouse
Experimental: (§1) Post-emergence test experiment: Monocotyledonous and dicotyledonous weed seeds and main crop seeds (i.e. wheat, corn, rice, soybean, cotton, oilseed, millet and sorghum.) were put into a plastic pot loaded with soil. Then covered with 0.5-2 cm soil, the seeds were allowed to grow in good greenhouse environment. The test plants were treated at 2-3 leaf stage 2-3 weeks after sowing. The test compounds of the invention were dissolved with acetone respectively, then added with 80 tween and diluted by certain amount of water to certain concentration. The solution was sprayed to the plants with a sprayer. Then the plants were cultured for 3 weeks in the greenhouse.

[2] = system: Monocotyledonous and dicotyledonous weed; assay: Post-emergence test experiment, weed control effect (Table 2); format: in vivo; parameters: key to weed control effect, Setaria viridis (level) / weed control effect, Rorippa indica (level) / weed control effect, Abutilon theophrasti (level) / weed control effect, Echinochloa crus-galli (level) / weed control effect, Digitaria sanguinalis (level): Level 10: completely dead; Level 9: above 90% growth inhibition rate; Level 8: above 80% growth inhibition rate; Level 7: above 70% growth inhibition rate; Level 6: above 60% growth inhibition rate; Level 5: above 50% growth inhibition rate; Level 4: above 30% growth inhibition rate; Level 3: above 20% growth inhibition rate; Level 2: above 10% growth inhibition rate; Level 1: above 1-10% growth inhibition rate; Level 0: no effect; conditions: 3 weeks after spraying, greenhouse
Experimental: as §1

Row | Compound | effect on crop, corn (level) ([1]; 60 g/ha) | effect on crop, rice (level) ([1]; 60 g/ha) | effect on crop, wheat (level) ([1]; 60 g/ha) | weed control effect, Abutilon theophrasti (level) ([2]; 60 g/ha) | weed control effect, Bidens pilosa (level) ([2]; 60 g/ha) | weed control effect, Digitaria sanguinalis (level) ([2]; 60 g/ha) | weed control effect, Echinochloa crus-galli (level) ([2]; 60 g/ha) | weed control effect, Rorippa indica (level) ([2]; 60 g/ha) | weed control effect, Setaria viridis (level) ([2]; 60 g/ha) | effect on crop, corn (level) ([1]; 120 g/ha) | effect on crop, rice (level) ([1]; 120 g/ha) | effect on crop, wheat (level) ([1]; 120 g/ha) | weed control effect, Abutilon theophrasti (level) ([2]; 120 g/ha) | weed control effect, Bidens pilosa (level) ([2]; 120 g/ha) | weed control effect, Digitaria sanguinalis (level) ([2]; 120 g/ha) | weed control effect, Echinochloa crus-galli (level) ([2]; 120 g/ha) | weed control effect, Rorippa indica (level) ([2]; 120 g/ha) | weed control effect, Setaria viridis (level) ([2]; 120 g/ha)
1 | Cc1nn(C)cc1C(=O)Oc1c(C(=O)c2ccc(S(C)(=O)=O)c(Cn3cccn3)c2Cl)c(C)nn1C [Compound 01] | 1 (Level 1: above 1-10% growth inhibition rate) | 1 (Level 1: above 1-10% growth inhibition rate) | 1 (Level 1: above 1-10% growth inhibition rate) | 10 | 8 (Level 8: above 80% growth inhibition rate) | 10 | 10 | 10 | 10 |  |  |  |  |  |  |  |  | 
2 | Cc1cc(C)n(Cc2c(S(C)(=O)=O)ccc(C(=O)c3c(C)nn(C)c3OC(=O)c3cn(C)nc3C)c2Cl)n1 [Compound 03] |  |  |  |  |  |  |  |  |  | 0 | 0 | 0 | 4 (Level 4: above 30% growth inhibition rate) | 6 (Level 6: above 60% growth inhibition rate) | 0 | 10 | 0 | 6 (Level 6: above 60% growth inhibition rate)
3 | Cc1cnn(Cc2c(S(C)(=O)=O)ccc(C(=O)c3c(C)nn(C)c3OC(=O)c3cn(C)nc3C)c2Cl)c1 [Compound 04] |  |  |  |  |  |  |  |  |  | 0 | 0 | 0 | 6 (Level 6: above 60% growth inhibition rate) | 6 (Level 6: above 60% growth inhibition rate) | 1 (Level 1: above 1-10% growth inhibition rate) | 10 | 4 (Level 4: above 30% growth inhibition rate) | 5 (Level 5: above 50% growth inhibition rate)
4 | Cc1nn(C)cc1C(=O)Oc1c(C(=O)c2ccc(S(C)(=O)=O)c(Cn3cc(Cl)cn3)c2Cl)c(C)nn1C [Compound 05] |  |  |  |  |  |  |  |  |  | 0 | 1 (Level 1: above 1-10% growth inhibition rate) | 0 | 9 (Level 9: above 90% growth inhibition rate) | 8 (Level 8: above 80% growth inhibition rate) | 9 (Level 9: above 90% growth inhibition rate) | 10 | 10 | 5 (Level 5: above 50% growth inhibition rate)
5 | Cc1cnn(Cc2c(S(C)(=O)=O)ccc(C(=O)c3cnn(C)c3OC(=O)c3cn(C)nc3C)c2Cl)c1 [Compound 07] |  |  |  |  |  |  |  |  |  | 0 | 0 | 0 | 6 (Level 6: above 60% growth inhibition rate) | 6 (Level 6: above 60% growth inhibition rate) | 1 (Level 1: above 1-10% growth inhibition rate) | 10 | 4 (Level 4: above 30% growth inhibition rate) | 5 (Level 5: above 50% growth inhibition rate)
6 | Cc1nn(C)cc1C(=O)Oc1c(C(=O)c2ccc(S(C)(=O)=O)c(Cn3cccn3)c2Cl)cnn1C [Compound 08] | 1 (Level 1: above 1-10% growth inhibition rate) | 1 (Level 1: above 1-10% growth inhibition rate) | 1 (Level 1: above 1-10% growth inhibition rate) | 10 | 8 (Level 8: above 80% growth inhibition rate) | 7 (Level 7: above 70% growth inhibition rate) | 9 (Level 9: above 90% growth inhibition rate) | 10 | 7 (Level 7: above 70% growth inhibition rate) |  |  |  |  |  |  |  |  | 
